Data on 24 compounds can be found in patent US9120752B2, “Pyridine compounds as sodium channel blockers” (Purdue Pharma, L.P., priority 2010, dated 2015).

Sequence of human Nav1.7 (Q15858 other isoform, or with tags, fused parts or gaps): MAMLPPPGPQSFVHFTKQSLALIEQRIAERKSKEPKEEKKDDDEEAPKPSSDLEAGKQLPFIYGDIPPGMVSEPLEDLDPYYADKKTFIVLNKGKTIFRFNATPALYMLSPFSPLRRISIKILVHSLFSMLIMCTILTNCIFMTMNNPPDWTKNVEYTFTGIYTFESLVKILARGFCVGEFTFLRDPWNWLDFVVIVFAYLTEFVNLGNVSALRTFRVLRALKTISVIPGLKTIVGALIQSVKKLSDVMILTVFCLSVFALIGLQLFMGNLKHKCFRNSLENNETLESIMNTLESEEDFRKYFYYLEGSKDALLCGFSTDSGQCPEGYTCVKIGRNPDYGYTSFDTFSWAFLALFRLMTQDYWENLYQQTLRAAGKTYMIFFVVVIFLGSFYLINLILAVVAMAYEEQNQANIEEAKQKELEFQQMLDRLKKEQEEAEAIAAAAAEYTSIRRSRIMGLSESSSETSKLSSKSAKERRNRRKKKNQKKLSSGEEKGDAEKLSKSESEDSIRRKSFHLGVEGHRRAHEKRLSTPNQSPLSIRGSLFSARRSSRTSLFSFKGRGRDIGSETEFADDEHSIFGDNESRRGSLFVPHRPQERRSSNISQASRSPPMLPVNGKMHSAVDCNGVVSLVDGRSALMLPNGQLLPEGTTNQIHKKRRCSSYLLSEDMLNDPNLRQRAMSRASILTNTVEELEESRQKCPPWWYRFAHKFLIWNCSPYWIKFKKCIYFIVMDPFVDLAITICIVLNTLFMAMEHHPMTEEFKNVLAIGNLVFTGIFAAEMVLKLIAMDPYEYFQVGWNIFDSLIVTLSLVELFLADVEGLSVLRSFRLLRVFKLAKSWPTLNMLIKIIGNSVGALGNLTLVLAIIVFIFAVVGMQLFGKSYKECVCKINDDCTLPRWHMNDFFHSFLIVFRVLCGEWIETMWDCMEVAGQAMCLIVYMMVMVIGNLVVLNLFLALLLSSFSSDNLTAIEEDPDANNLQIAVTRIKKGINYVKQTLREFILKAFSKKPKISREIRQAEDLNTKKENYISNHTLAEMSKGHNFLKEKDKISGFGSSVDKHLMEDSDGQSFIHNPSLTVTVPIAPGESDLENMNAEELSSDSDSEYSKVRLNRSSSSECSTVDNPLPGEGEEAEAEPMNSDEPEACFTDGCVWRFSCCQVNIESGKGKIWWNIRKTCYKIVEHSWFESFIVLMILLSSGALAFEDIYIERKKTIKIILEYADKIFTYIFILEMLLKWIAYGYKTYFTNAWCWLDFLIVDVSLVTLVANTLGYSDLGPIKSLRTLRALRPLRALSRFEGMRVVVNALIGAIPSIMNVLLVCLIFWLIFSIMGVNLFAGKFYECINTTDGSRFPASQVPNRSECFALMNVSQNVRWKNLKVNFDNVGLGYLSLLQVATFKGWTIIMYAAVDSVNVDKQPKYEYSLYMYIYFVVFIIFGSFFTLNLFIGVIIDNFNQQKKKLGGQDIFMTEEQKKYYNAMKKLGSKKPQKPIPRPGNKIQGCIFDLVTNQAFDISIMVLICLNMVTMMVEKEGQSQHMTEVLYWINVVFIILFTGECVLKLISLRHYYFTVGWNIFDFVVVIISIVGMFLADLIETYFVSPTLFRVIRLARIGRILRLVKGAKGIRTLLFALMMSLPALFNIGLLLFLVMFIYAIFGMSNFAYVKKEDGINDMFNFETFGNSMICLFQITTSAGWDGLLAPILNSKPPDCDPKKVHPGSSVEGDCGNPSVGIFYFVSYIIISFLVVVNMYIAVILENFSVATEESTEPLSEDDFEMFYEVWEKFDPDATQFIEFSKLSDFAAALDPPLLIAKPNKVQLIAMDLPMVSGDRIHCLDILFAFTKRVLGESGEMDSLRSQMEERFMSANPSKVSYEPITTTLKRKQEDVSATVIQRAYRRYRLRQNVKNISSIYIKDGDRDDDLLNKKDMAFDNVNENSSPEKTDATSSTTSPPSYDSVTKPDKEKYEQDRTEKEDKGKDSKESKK

The first assay deals with FCA-induced inflammation of the rat hind paw. The assay can be described thus: Freund's complete adjuvant (FCA) model of inflammatory pain, paw withdrawal threshold. In kind it is in vivo. Conditions: 10 mg/kg, oral (PO), 3 h post administration. As for the experimental part:
Each experiment uses rats weighing between 200-260 g at the start of the experiment. The rats are group-housed and have free access to food and water at all times, except prior to oral administration of a test compound when food is removed for 16 hours before dosing. A control group acts as a comparison to rats treated with a compound of Formulae I-XIII. The control group is administered the carrier as used for the test compound. The volume of carrier administered to the control group is the same as the volume of carrier and test compound administered to the test group.
To assess the actions of the compounds of Formulae I-XIII on the treatment of inflammatory pain the Freund's complete adjuvant (“FCA”) model of inflammatory pain was used. […] 24 hour post injection, the animal was assessed for response to noxious mechanical stimuli by determining the paw withdrawal threshold (PWT), or to noxious thermal stimuli by determining the paw withdrawal latency (PWL), as described below. […] Responses to noxious mechanical or thermal stimuli were determined 1, 3, and 5 hours post administration (admin). […]
Sensitivity to noxious mechanical stimuli can be measured in animals using the paw pressure test to assess mechanical hyperalgesia. […] PWT is determined once for each rat at each time point. PWT can be measured only in the injured paw, or in both the injured and non-injured paw. […]
On to `NC(=O)[C@H](CO)NC(=O)c1cccc(-c2ccc(Oc3ccc(F)cc3)cc2)n1` [Compound 47, 6-[4-(4-fluoro-phenoxy)-phenyl]-pyridine-2-carboxylic acid ((S)-1-carbamoyl-2-hydroxy-ethyl)-amide], for which the “increase in PWT (paw withdrawal threshold)” value is listed as “statistically significant increase”.

Still in this assay, the particulars now being: 30 mg/kg, oral (PO), 1, 3 and 5 h post administration.
For `NC(=O)[C@H](CO)NC(=O)c1cccc(-c2ccc(Oc3ccc(F)cc3)cc2)n1` [Compound 47, 6-[4-(4-fluoro-phenoxy)-phenyl]-pyridine-2-carboxylic acid ((S)-1-carbamoyl-2-hydroxy-ethyl)-amide], the “increase in PWT (paw withdrawal threshold)” value is “statistically significant increase”.

A further assay concerns the target human Nav1.7 (Homo sapiens (Human), UniProt Q15858). The assay can be described thus: FLIPR or FLIPR TETRA sodium dye assay with KCl and test article pre-incubation. In kind it is cell-based. Particulars: sodium dye assay with KCl; recombinant Nav1.7/HEK293 cells; read-out: Nav1.7 IC50 (μM) ± SEM.
In the case of `N#Cc1cccc(S(=O)(=O)NCCNC(=O)c2cccc(-c3ccc(Oc4ccc(F)cc4)cc3)n2)c1` [Compound 24, N-(2-(3-cyanophenylsulfonamido)ethyl)-6-(4-(4-fluorophenoxy)phenyl)picolinamide], the IC50 (usually the concentration needed to halve the response being measured) was found to be 0.03 ± 0.04 µM.
Same read-out and setting: as for `NC(=O)[C@@H](Cc1c[nH]c2ccccc12)NC(=O)c1cccc(-c2ccc(Oc3ccc(F)cc3)cc2)n1` [Compound 37, 6-[4-(4-fluoro-phenoxy)-phenyl]-pyridine-2-carboxylic acid [(R)-1-carbamoyl-2-(1H-indol-3-yl)-ethyl]-amide], the figure is 4.02 ± 2.78 µM.
Take `NC(=O)C[C@H](NC(=O)c1cccc(-c2ccc(Oc3ccc(F)cc3)cc2)n1)C(N)=O` [Compound 39, (S)-2-({6-[4-(4-fluoro-phenoxy)-phenyl]-pyridine-2-carbonyl}-amino)-succinamide]: the IC50 was 0.75 ± 0.05 µM.
In the case of `NC(=O)[C@@H](CO)NC(=O)c1cccc(-c2ccc(Oc3ccc(F)cc3)cc2)n1` [Compound 40, 6-[4-(4-fluoro-phenoxy)-phenyl]-pyridine-2-carboxylic acid ((R)-1-carbamoyl-2-hydroxyl-ethyl)-amide], the IC50 came to 1.32 ± 0.16 µM.
The same measure, in the same setting: as for `NC(=O)[C@H](Cc1ccccc1)NC(=O)c1cccc(-c2ccc(Oc3ccc(F)cc3)cc2)n1` [Compound 41, 6-[4-(4-fluoro-phenoxy)-phenyl]-pyridine-2-carboxylic acid ((S)-1-carbamoyl-2-phenyl-ethyl)-amide], the figure is more than 20 µM; as for `NC(=O)[C@@H]1CCCN1C(=O)c1cccc(-c2ccc(Oc3ccc(F)cc3)cc2)n1` [Compound 42, (S)-1-{6-[4-(4-fluoro-phenoxy)-phenyl]-pyridine-2-carbonyl}-pyrrolidine-2-carboxylic acid amide], 2.12 ± 0.35 µM; as for `CC(O)[C@H](NC(=O)c1cccc(-c2ccc(Oc3ccc(F)cc3)cc2)n1)C(N)=O` (stereo partly drawn) [Compound 43, 6-[4-(4-fluoro-phenoxy)-phenyl]-pyridine-2-carboxylic acid ((S)-1-carbamoyl-2-hydroxy-propyl)-amide], 1.56 ± 0.5 µM.
The same measure, in the same setting: as for `CC(C)C[C@H](NC(=O)c1cccc(-c2ccc(Oc3ccc(F)cc3)cc2)n1)C(N)=O` [Compound 44, 6-[4-(4-fluoro-phenoxy)-phenyl]-pyridine-2-carboxylic acid ((S)-1-carbamoyl-3-methyl-butyl)-amide], the figure is 0.34 ± 0.07 µM; as for `NC(=O)[C@H](Cc1cccnc1)NC(=O)c1cccc(-c2ccc(Oc3ccc(F)cc3)cc2)n1` [Compound 45, (S)—N-(1-amino-1-oxo-3-(pyridin-3-yl)propan-2-yl)-6-(4-(4-fluorophenoxy)phenyl)picolinamide], 0.21 ± 0.04 µM; as for `CC(C)[C@H](NC(=O)c1cccc(-c2ccc(Oc3ccc(F)cc3)cc2)n1)C(N)=O` [Compound 46, 6-[4-(4-fluoro-phenoxy)-phenyl]-pyridine-2-carboxylic acid ((S)-1-carbamoyl-2-methyl-propyl)-amide], 0.61 ± 0.05 µM.
For the compound `NC(=O)[C@H](CO)NC(=O)c1cccc(-c2ccc(Oc3ccc(F)cc3)cc2)n1` [Compound 47, 6-[4-(4-fluoro-phenoxy)-phenyl]-pyridine-2-carboxylic acid ((S)-1-carbamoyl-2-hydroxy-ethyl)-amide], the IC50 is 1.53 ± 0.33 µM.
Same read-out and setting: as for `NC(=O)[C@H](Cc1ccc(O)cc1)NC(=O)c1cccc(-c2ccc(Oc3ccc(F)cc3)cc2)n1` [Compound 48, 6-[4-(4-fluoro-phenoxy)-phenyl]-pyridine-2-carboxylic acid [(S)-1-carbamoyl-2-(4-hydroxy-phenyl)-ethyl]-amide], the figure is 0.55 ± 0.08 µM; as for `NC(=O)[C@H](Cc1c[nH]cn1)NC(=O)c1cccc(-c2ccc(Oc3ccc(F)cc3)cc2)n1` [Compound 49, 6-[4-(4-fluoro-phenoxy)-phenyl]-pyridine-2-carboxylic acid [(S)-1-carbamoyl-2-(1H-imidazol-4-yl)-ethyl]-amide], 0.33 ± 0.02 µM.
Same read-out and setting: as for `NCCCC[C@H](NC(=O)c1cccc(-c2ccc(Oc3ccc(F)cc3)cc2)n1)C(N)=O` [Compound 51, (S)—N-(1,6-diamino-1-oxohexan-2-yl)-6-(4-(4-fluorophenoxy)phenyl)picolinamide], the figure is 2.89 ± 0.33 µM; as for `N#Cc1cccc(S(=O)(=O)N2CCN(C(=O)c3cccc(Oc4ccc(F)cc4)n3)CC2)c1` [Compound 55, 3-((4-(6-(4-fluorophenoxy)picolinoyl)piperazin-1-yl)sulfonyl)benzonitrile], 5.94 ± 0.73 µM; as for `N#Cc1cccc(S(=O)(=O)N2CCN(C(=O)c3cccc(-c4ccc(F)cc4)n3)CC2)c1` [Compound 56, 3-((4-(6-(4-fluorophenyl)picolinoyl)piperazin-1-yl)sulfonyl)benzonitrile], 6.81 ± 0.57 µM.
Same read-out and setting: as for `N#Cc1cccc(S(=O)(=O)N2CCN(C(=O)c3cc([C@H](O)CO)cc(-c4ccc(Oc5ccc(F)cc5)cc4)n3)CC2)c1` [Compound 58, (S)-3-((4-(4-(1,2-dihydroxyethyl)-6-(4-(4-fluorophenoxy)phenyl)picolinoyl)piperazin-1-yl)sulfonyl)benzonitrile], the figure is 2.31 ± 0.62 µM.
Turning to `N#Cc1cc(S(=O)(=O)N2CCN(C(=O)c3cccc(-c4ccc(Oc5ccc(F)cc5)cc4)n3)CC2)ccc1F` [Compound 59], the IC50 stood at 0.34 ± 0.13 µM.
Same read-out and setting: as for `CN1CCOc2cc(S(=O)(=O)N3CCN(C(=O)c4cccc(-c5ccc(Oc6ccc(F)cc6)cc5)n4)CC3)ccc21` [Compound 60, (6-(4-(4-fluorophenoxy)phenyl)pyridin-2-yl)(4-((4-methyl-3,4-dihydro-2H-benzo[b][1,4]oxazin-7-yl)sulfonyl)piperazin-1-yl)methanone], the figure is 0.78 ± 0.1 µM.
Still for that read-out and setting: as for `C[C@H](NC(=O)c1cccc(-c2ccc(Oc3ccc(C(F)(F)F)cn3)cc2)n1)C(N)=O` [Compound 61, (S)—N-(1-amino-1-oxopropan-2-yl)-6-(4-((5-(trifluoromethyl)pyridin-2-yl)oxy)phenyl)picolinamide], the figure is 4.34 ± 0.73 µM.
Same read-out and setting: as for `CC(C)C[C@H](NC(=O)c1cc([C@H](O)CO)cc(-c2ccc(Oc3ccc(F)cc3)cc2)n1)C(N)=O` [Compound 63, N—((S)-1-amino-4-methyl-1-oxopentan-2-yl)-4-((S)-1,2-dihydroxyethyl)-6-(4-(4-fluorophenoxy)phenyl)picolinamide], the figure is 0.814 ± 0.231 µM; as for `NC(=O)C[C@H](NC(=O)c1cc([C@H](O)CO)cc(-c2ccc(Oc3ccc(F)cc3)cc2)n1)C(N)=O` [Compound 64, (S)-2-(4-((S)-1,2-dihydroxyethyl)-6-(4-(4-fluorophenoxy)phenyl)picolinamido)succinamide], more than 20 µM.
Consider `CC(C)C[C@H](NC(=O)c1cc([C@@H](O)CO)cc(-c2ccc(Oc3ccc(F)cc3)cc2)n1)C(N)=O` [Compound 65, N—((S)-1-amino-4-methyl-1-oxopentan-2-yl)-4-((R)-1,2-dihydroxyethyl)-6-(4-(4-fluorophenoxy)phenyl)picolinamide], for which the IC50 came to 1.56 ± 0.166 µM.
Same read-out and setting: as for `NC(=O)C[C@H](NC(=O)c1cc([C@@H](O)CO)cc(-c2ccc(Oc3ccc(F)cc3)cc2)n1)C(N)=O` [Compound 66, (S)-2-(4-((R)-1,2-dihydroxyethyl)-6-(4-(4-fluorophenoxy)phenyl)picolinamido) succinamide], the figure is more than 20 µM.
